The results in this text go back to patent publication US9708247B2, “Modulators of the eIF2alpha pathway” (The Regents of the University of California, priority 2013, dated 2017).

Holding throughout (format): cell-based, human
In one assay the test system is eIF2α (p-Ser51). Kind of assay: AlphaScreen SureFire eIF2α(p-Ser51) assay in U2OS cells. To be noted: U2OS cells, ER stressor alone, after 120 minutes. The procedure:
U2OS cells were plated on 96 well plates and left to recover overnight. Cells were treated with either with 2 μg/ml tunicamycin or 100 nM thapsigargin in the presence or absence of 100 nM ISRIB or with ISRIB alone for the indicated and the level of eIF2α phosphorylation was determined using the AlphaScreen SureFire eIF2α(p-Ser51) Assay kit (Perkin Elmer) following the manufacturer's recommendations. Plates were read in an Envision Xcite Multilabel Reader using the standard Alpha Screen settings.
A general note: In Alpha technology, singlet oxygen from a donor bead excites a nearby acceptor bead.

A further assay concerns global translation. Kind of assay: Metabolic labeling (35S-methionine incorporation) in HEK293T cells. To be noted: 100 nM thapsigargin alone. The procedure:
HEK293T cells were seeded on 12 well plates, allowed to recover overnight and treated for the indicated times with the indicated compounds. The cells were subsequently switched to media lacking methionine and cysteine supplemented with the indicated compounds and 50 μCi of ^35S-methionine (Perkin Elmer) for 20 min. Cells were lysed by addition of SDS-PAGE loading buffer. Lysates were sonicated and equal amounts were loaded on SDS-PAGE gels (BioRad). The gel was dried and radioactive methionine incorporation was detected by exposure to a phosphor-screen and visualized with a Typhoon 9400 Variable Mode Imager (GE Healthcare).

Assay [1] concerns ATF4 luciferase reporter. Kind of assay: ATF4 luciferase reporter assay (Cell-luc) in HEK293T cells. To be noted: ER stressor alone, 384 well format. A general note: Reporter assays use an easily measured gene product as a stand-in for the process of interest.
Assay [2] has as its system ATF4 luciferase reporter. The assay is described as above. To be noted: ATF4 luciferase reporter, HEK293T cells, read-out: IC50 (nM) Cell-luc. The text has this:
FIGS. 1A-1C. […]
To identify inhibitors of PERK signaling, we engineered a reporter that allows monitoring of PERK activation in living cells. To this end, we constructed a retroviral vector containing the open-reading frame of firefly luciferase fused to the 5′UTR of ATF4 mRNA (FIG. 1A), which contains two short open-reading frames (uORFs) that control ATF4 translation in a stress-dependent manner. After infection, we established a HEK293T cell line harboring the stably integrated reporter. […] This format was used to screen 106,281 compounds covering a wide chemical space. We identified 460 hits (0.43%) (FIG. 1C), which were further validated in an 8-point dose-response assay using the same reporter. We further triaged the compounds by discarding inhibitors that also affected the IRE1 branch of the UPR using an XBP1-luciferase splicing reporter. […] We next used an orthogonal secondary screen that employed a different reporter (bi-cistronic ATF4-dGFPIRES-mCherry) stably integrated into a different cell line (U20S cells). The read-out of this latter screen was microscopy-based, which allowed us to simultaneously assess acute toxicity by cell counting, further reducing the number of viable hits to 77. As a tertiary screen, we tested compounds for their ability to inhibit ER stress-elicited induction of endogenous ATF4 by Western blot analysis. Twenty-eight compounds passed this test and were analyzed further.
ATF4 reporters were constructed by fusing the human full-length ATF4 5′-UTR (NCBI Accession BC022088.2) in front of the firefly luciferase (FLuc) or a destabilized eGFP (dEGFP) coding sequences lacking the initiator methionine.
The ATF4-FLuc reporter was generated by cloning a PCR-product containing the ATF4 full-length 5′-UTR (from +1 position a the transcription start site down to one nucleotide after the terminator codon of the second uORF) flanked by KpnI/XhoI and BglII sites at the 5′ and 3′ ends, respectively, into the KpnI-BglII sites of pCAX-F-XBP1-Luc. The resulting construct, pCAX-ATF4-FLuc, was then digested with BamHI, blunted with T4 DNA polymerase, and then digested with XhoI. The resulting fragment was then subcloned into the retroviral expression vector pLPCX (Clontech) after digesting it with HindIII, blunting with T4 DNA polymerase and then digesting with XhoI to generate pLPCX-ATF4-FLuc (DAA-312). DAA-312 was used to produce recombinant retroviruses using standard methods and the resulting viral supernatant was used to transduce HEK293T cells, which were then subsequently selected with puromycin to generate a stable cell line employed in the primary screen.
HEK293T cells carrying the ATF4 luciferase reporter were plated on poly-lysine coated 384 well plates (Greiner) at 30,000 cells per well. […] Luminescence was measured using One Glo (Promega) as specified by the manufacturer. […] Thus, these were considered unique to the PERK branch and were cherry-picked for further analysis.

SMILES strings stand for the structures. Where two headings read alike, the source gives them in different places.

`C/C=C(/C)C(=O)O[C@H]1C(C)=C2[C@H]([C@@H]1OC(=O)CCCCCCC)[C@@](C)(OC(C)=O)C[C@H](OC(=O)CCC)[C@@]1(O)[C@H]2OC(=O)[C@@]1(C)O` [Thapsigargin, thapsigargin, reference compound]: the “increase of eIF2α phosphorylation” value with eIF2α (p-Ser51) is on record as 7 fold. In the assay with global translation, this compound yielded a drop in translation of 40%. Also, in the assay on ATF4 luciferase reporter [1], the “induction in luciferase activity” value was found to be 4.9 fold.
In the case of `N=C(COc1ccc(Cl)c(Cl)c1)N[C@H]1CC[C@H](NC(=O)COc2ccc(Cl)c(Cl)c2)CC1` [compound 957914], in the assay with ATF4 luciferase reporter [2] (Homo sapiens, HEK-293T), the IC50 (commonly the point on the concentration scale where inhibition reaches its midpoint) was determined as 40 nM.
For `N=C(COc1ccc(Cl)c(F)c1)N[C@H]1CC[C@H](NC(=O)COc2ccc(Cl)c(F)c2)CC1` [compound 957915], the 50% inhibitory concentration (IC50) in the assay with ATF4 luciferase reporter [2] stood at 344 nM.
For `N=C(COc1ccc(Cl)c(F)c1)N[C@H]1CC[C@H](NC(=O)COc2ccc(Cl)c(F)c2)CC1` [compound 957916], in the assay with ATF4 luciferase reporter [2], the IC50 was 122 nM.
